Data: US7074789B2, “Kinase inhibitors” (Amgen Inc., priority 1999, dated 2006)

Tests used:
Assay type in all cases: biochemical
Lck = molecular target: T1, Lck (Homo sapiens, UniProt P06239); assay: Kinase inhibition assay (33P transfer), Lck; details: Table 3, class symbols; read-out: Lck-1
T1 construct: Kinases are expressed as either kinase domains or full length constructs; made in house
How it was run: (§1)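 GST/His-tagged kinase (domain or full length; E. coli or baculovirus) + [33P]ATP on plates coated with poly(Glu,Tyr) 4:1 or poly(Arg,Ser) 3:1; incubate, wash 0.5% H3PO4, add scintillant, count.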

Zap-70 = molecular target: T2, Zap-70 (Homo sapiens, UniProt P43403); assay: Kinase inhibition assay (33P transfer), Zap-70; details: Table 3, class symbols; read-out: Zap-1
T2 construct: Kinases are expressed as either kinase domains or full length constructs; made in house
T2 sequence (P43403 1-619): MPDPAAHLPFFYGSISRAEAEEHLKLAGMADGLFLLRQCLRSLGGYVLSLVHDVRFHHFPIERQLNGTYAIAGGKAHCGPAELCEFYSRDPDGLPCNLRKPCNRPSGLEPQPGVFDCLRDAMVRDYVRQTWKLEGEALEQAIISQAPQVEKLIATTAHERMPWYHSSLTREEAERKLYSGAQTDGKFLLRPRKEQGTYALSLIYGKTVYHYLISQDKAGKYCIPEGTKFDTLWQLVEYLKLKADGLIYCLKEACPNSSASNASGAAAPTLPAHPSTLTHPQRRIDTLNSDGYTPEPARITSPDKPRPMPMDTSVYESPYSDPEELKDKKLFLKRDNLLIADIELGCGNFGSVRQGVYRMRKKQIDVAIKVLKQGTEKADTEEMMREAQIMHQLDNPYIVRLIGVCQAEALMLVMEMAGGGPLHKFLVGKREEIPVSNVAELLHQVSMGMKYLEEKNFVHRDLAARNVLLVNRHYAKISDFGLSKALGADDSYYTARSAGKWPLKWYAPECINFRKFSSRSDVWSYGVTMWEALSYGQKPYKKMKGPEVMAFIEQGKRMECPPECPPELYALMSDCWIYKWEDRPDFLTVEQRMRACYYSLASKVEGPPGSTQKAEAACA
How it was run: as §1

Itk = molecular target: T3, Itk (Homo sapiens, UniProt Q08881); assay: Kinase inhibition assay (33P transfer), Itk; details: Table 3, class symbols; read-out: Itk-1
T3 construct: Kinases are expressed as either kinase domains or full length constructs; made in house
T3 sequence (Q08881 1-620): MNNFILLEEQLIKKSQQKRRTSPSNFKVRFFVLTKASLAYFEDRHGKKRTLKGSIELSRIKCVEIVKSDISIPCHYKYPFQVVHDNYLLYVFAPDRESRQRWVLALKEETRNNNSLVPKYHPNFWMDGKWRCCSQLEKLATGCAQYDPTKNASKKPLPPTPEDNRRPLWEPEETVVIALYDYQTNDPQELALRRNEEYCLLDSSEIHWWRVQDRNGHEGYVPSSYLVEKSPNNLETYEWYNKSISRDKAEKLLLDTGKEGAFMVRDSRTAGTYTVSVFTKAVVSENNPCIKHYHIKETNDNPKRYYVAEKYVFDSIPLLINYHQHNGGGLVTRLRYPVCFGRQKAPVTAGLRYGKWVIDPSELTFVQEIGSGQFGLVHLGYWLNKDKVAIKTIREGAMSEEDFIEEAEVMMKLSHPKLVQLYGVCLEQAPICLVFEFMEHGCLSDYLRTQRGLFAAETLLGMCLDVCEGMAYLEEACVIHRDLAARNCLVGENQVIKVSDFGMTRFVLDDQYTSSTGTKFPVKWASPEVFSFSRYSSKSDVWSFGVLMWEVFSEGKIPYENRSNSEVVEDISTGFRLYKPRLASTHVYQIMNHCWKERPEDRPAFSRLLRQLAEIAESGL
How it was run: (§2)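 Using immobilised substrate copolymers (poly(Glu,Tyr) 4:1; poly(Arg,Ser) 3:1) and [33P]ATP, purified fusion kinases were allowed to react; plates were then rinsed in 0.5% phosphoric acid and counted in a scintillation detector. Half-maximal inhibition of label transfer defines IC50.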

EGFR = molecular target: T4, EGFR (Homo sapiens, UniProt P00533); assay: Kinase inhibition assay (33P transfer), EGFR; details: Table 2, class symbols A-E; read-out: EGFR-1
T4 construct: Kinases are expressed as either kinase domains or full length constructs; made in house
T4 sequence (P00533 25-1210, species assumed): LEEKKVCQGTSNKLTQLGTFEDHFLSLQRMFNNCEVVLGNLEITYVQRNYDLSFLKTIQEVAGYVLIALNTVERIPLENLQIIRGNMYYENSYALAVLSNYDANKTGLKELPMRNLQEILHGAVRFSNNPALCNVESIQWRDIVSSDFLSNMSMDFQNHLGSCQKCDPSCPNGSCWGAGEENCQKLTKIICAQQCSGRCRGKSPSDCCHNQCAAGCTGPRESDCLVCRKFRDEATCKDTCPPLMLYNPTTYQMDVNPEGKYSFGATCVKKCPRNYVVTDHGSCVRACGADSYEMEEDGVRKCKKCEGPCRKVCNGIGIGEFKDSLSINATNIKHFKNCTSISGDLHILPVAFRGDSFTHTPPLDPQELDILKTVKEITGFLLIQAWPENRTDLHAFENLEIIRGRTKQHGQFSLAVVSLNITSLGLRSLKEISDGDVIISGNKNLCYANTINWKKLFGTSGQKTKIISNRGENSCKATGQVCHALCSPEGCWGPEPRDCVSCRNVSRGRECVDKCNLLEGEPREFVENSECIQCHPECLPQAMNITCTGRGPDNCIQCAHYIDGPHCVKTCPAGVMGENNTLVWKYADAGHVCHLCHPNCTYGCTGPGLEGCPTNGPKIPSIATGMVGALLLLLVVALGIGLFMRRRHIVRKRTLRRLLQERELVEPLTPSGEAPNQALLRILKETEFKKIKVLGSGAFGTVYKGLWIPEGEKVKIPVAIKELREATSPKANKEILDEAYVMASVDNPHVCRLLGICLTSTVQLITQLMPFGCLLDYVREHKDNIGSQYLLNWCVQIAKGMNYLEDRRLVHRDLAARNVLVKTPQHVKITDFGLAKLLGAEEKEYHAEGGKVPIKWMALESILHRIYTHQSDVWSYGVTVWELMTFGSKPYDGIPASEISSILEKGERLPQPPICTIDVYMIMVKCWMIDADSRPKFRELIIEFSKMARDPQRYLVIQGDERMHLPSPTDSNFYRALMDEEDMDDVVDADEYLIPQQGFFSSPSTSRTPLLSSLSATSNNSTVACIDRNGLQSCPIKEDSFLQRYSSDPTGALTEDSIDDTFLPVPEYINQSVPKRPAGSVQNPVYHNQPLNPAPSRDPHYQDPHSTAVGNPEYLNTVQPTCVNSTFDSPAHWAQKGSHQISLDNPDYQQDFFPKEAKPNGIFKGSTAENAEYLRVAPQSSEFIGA
How it was run: as §2

ErbB2 = molecular target: T5, ErbB2 (Homo sapiens, UniProt P04626); assay: Kinase inhibition assay (33P transfer), ErbB2; details: read-out: ErbB2-2
T5 construct: Kinases are expressed as either kinase domains or full length constructs; made in house
How it was run: as §2

Kdr = molecular target: T6, Kdr (Homo sapiens, UniProt P35968); assay: Kinase inhibition assay (33P transfer), Kdr; details: Table 3, class symbols; read-out: KDR-1
T6 construct: Kinases are expressed as either kinase domains or full length constructs; made in house
T6 sequence (P35968 20-1356, species assumed): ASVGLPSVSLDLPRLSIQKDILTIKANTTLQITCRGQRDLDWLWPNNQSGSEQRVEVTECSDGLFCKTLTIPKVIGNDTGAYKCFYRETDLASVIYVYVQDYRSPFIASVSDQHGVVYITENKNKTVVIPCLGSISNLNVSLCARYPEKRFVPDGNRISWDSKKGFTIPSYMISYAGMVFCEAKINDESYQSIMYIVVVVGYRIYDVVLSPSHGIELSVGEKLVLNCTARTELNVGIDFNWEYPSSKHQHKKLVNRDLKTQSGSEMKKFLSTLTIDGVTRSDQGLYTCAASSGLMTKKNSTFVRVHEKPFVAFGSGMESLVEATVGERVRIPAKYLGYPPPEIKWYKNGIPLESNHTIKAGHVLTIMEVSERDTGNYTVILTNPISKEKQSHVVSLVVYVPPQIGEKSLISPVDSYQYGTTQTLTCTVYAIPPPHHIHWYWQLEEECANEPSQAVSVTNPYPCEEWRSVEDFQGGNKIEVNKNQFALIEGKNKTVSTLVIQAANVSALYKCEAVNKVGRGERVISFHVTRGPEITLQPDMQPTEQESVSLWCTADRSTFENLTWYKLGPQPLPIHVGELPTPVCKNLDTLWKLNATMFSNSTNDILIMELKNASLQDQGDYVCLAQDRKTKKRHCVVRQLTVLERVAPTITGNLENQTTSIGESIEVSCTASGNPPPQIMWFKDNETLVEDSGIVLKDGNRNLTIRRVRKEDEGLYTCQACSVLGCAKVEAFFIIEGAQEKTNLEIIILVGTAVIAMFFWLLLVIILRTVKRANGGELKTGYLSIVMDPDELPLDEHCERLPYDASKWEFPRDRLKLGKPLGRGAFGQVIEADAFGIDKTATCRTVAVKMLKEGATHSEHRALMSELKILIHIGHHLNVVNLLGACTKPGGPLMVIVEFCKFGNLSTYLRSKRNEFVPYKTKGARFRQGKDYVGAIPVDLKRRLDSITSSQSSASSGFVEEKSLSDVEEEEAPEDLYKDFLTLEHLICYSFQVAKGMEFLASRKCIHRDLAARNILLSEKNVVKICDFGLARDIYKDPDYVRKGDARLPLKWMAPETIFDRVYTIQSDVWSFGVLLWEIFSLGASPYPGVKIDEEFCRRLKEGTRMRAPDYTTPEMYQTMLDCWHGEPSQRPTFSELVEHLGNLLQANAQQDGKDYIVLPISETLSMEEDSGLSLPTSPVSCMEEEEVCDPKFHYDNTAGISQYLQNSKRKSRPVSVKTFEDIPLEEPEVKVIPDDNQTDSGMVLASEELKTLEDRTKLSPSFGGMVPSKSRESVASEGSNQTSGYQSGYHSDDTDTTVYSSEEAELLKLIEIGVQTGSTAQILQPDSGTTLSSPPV
How it was run: as §1

c-Met = molecular target: T7, c-Met (Homo sapiens, UniProt P08581); assay: Kinase inhibition assay (33P transfer), c-Met; details: Table 2, class symbols A-E; read-out: Met-1
T7 construct: Kinases are expressed as either kinase domains or full length constructs; made in house
T7 sequence (P08581 25-1390): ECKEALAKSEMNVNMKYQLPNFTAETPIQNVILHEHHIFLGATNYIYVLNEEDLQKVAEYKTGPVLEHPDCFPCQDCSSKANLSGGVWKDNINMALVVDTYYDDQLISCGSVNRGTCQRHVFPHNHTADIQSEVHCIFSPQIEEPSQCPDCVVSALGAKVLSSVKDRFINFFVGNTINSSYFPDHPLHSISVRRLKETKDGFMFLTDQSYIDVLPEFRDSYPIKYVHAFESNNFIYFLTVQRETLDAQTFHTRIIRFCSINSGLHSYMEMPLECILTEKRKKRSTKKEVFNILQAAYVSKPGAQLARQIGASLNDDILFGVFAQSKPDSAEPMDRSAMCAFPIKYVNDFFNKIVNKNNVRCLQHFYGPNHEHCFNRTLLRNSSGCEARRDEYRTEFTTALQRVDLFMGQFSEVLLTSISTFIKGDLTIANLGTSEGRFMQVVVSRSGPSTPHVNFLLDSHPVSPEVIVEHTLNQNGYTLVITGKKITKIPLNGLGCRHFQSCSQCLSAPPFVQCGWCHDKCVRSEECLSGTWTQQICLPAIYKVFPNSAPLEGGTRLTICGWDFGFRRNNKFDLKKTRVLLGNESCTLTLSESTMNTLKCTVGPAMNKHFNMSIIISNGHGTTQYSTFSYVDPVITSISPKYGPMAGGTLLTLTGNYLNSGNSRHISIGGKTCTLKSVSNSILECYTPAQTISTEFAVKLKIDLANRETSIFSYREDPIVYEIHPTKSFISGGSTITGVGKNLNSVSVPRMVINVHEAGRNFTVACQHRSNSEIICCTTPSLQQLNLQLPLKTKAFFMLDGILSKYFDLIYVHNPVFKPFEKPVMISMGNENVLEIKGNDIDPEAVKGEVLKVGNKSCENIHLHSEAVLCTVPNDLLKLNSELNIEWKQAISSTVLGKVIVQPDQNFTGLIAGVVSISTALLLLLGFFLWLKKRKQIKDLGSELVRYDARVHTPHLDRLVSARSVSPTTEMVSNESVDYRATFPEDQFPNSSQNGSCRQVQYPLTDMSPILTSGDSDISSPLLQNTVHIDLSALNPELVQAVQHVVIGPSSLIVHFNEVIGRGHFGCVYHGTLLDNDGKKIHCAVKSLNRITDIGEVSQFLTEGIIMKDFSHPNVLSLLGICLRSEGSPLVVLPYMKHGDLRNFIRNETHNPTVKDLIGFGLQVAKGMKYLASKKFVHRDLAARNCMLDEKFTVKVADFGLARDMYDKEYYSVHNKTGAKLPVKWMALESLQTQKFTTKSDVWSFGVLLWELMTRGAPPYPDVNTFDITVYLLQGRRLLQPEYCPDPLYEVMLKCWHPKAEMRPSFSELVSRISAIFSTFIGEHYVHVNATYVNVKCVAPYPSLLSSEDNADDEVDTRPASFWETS
How it was run: as §2

AKT = molecular target: T8, AKT (Homo sapiens, UniProt Q9Y243); assay: Kinase inhibition assay (33P transfer), AKT; details: Table 2, class symbols A-E; read-out: AKT3-1
T8 construct: Kinases are expressed as either kinase domains or full length constructs; made in house
How it was run: as §1

IGFR-1 = molecular target: T9, IGFR-1 (Homo sapiens, UniProt P08069); assay: Kinase inhibition assay (33P transfer), IGFR-1; details: Table 2, class symbols A-E
T9 construct: Kinases are expressed as either kinase domains or full length constructs; made in house

PDGFRB = molecular target: T10, PDGFRB (Homo sapiens, UniProt P09619); assay: Kinase inhibition assay (33P transfer), PDGFRB; details: read-out: PDGFRB-1
T10 construct: Kinases are expressed as either kinase domains or full length constructs; made in house
T10 sequence (P09619 33-1106, species assumed): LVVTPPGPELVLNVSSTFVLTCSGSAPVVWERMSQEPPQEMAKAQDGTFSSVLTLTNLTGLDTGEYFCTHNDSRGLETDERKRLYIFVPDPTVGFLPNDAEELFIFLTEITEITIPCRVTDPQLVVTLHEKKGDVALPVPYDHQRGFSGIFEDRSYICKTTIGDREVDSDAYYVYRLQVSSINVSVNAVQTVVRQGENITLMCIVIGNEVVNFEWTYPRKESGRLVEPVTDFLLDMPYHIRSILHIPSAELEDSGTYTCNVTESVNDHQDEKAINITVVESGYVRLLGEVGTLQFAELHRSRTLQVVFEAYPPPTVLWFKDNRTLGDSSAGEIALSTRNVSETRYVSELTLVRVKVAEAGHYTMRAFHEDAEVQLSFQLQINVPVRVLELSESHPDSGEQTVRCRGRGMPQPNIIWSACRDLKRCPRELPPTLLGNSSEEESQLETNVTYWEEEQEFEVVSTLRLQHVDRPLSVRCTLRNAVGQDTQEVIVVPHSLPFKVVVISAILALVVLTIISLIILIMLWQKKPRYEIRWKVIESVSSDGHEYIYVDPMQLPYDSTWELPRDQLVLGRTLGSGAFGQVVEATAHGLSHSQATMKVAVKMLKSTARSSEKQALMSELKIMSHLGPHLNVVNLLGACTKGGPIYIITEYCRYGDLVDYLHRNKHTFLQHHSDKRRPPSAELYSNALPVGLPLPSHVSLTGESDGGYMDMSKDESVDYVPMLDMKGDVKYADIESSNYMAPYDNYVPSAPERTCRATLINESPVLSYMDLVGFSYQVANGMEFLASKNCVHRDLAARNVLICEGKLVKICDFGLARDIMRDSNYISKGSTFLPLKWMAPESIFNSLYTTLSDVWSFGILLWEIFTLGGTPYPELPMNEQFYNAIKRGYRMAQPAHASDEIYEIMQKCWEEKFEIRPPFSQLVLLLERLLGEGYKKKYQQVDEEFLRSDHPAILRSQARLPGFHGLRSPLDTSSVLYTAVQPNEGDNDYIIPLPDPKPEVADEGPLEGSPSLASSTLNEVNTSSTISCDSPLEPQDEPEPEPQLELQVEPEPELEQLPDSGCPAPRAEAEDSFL

Compound | IC50 (Lck) [µM] | IC50 (Zap-70) [µM] | IC50 (Itk) [µM] | IC50 (EGFR) [µM] | IC50 (ErbB2) [µM] | IC50 (Kdr) [nM] | IC50 (c-Met) [µM] | IC50 (AKT) [µM] | IC50 (IGFR-1) [µM] | IC50 (PDGFRB) [µM]
Fc1ccc(CNc2ncccc2-c2ncnc(Nc3ccc4[nH]ncc4c3)n2)cc1 [Compound 1108] | 5.82 to 8.49 | 5.82 to 8.49 | 5.82 to 8.49 | 0.97 to 5.82 | > 10.9 | < 970 | > 10.9 | 0.97 to 5.82 | 5.82 to 8.49 | < 0.97
CN(c1cccc(Cl)c1)c1ncnc(Nc2ccc(OC(F)(F)F)cc2)n1 [Compound 874] | > 11.4 | > 11.4 | > 11.4 | 1.01 to 6.06 | > 11.4 | > 11400 | > 11.4 | > 11.4 | > 11.4 | > 11.4
COc1cc(Nc2ncnc(-c3cccnc3Nc3cccc(C(F)(F)F)c3)n2)cc(OC)c1OC [Compound 836] | > 9.03 | > 9.03 | > 9.03 | > 9.03 | > 9.03 | > 9030 | > 9.03 | > 9.03 | > 9.03 | > 9.03
CCN(c1ncnc(Nc2cc(OC)c(OC)c(OC)c2)n1)c1cccc2ccccc12 [Compound 634] | 0.927 to 5.56 | > 10.4 | > 10.4 | < 0.927 | 0.927 to 5.56 | < 927 | 5.56 to 8.11 | 8.11 to 10.4 | > 10.4 | 8.11 to 10.4
COc1cc(Nc2ncnc(-c3cccnc3Nc3ccc(Cl)cc3C)n2)cc(OC)c1OC [Compound 834] | > 9.4 | > 9.4 | > 9.4 | > 9.4 | > 9.4 | 835 to 5010 | > 9.4 | > 9.4 | > 9.4 | < 0.835
c1cc(Nc2ncnc(Nc3cc(-c4ccco4)[nH]n3)n2)cc(-c2cnco2)c1 [Compound 824] | 1.04 to 6.21 | 1.04 to 6.21 | < 1.04 | < 1.04 | < 1.04 | < 1040 | < 1.04 | < 1.04 | < 1.04 | < 1.04
O=C(O)CNC(=O)c1ccc(Nc2ncnc(Nc3cc(-c4ccco4)[nH]n3)n2)cc1 [Compound 884] | > 10.7 | 5.71 to 8.33 | 0.951 to 5.71 | 0.951 to 5.71 | 0.951 to 5.71 | < 951 | 0.951 to 5.71 | 0.951 to 5.71 | 0.951 to 5.71 | < 0.951
FC(F)(F)Oc1cccc(Nc2ncnc(Nc3ccc4c(cnn4Cc4ccccc4)c3)n2)c1 [Compound 907] | > 9.43 | > 9.43 | > 9.43 | < 0.838 | 0.838 to 5.03 | > 9430 | 5.03 to 7.33 | > 9.43 | > 9.43 | > 9.43
Nc1nc2ccccc2n1-c1ncnc(Nc2cccc(Cn3ccnn3)c2)n1 [Compound 960] | 1.04 to 6.24 | > 11.7 | 1.04 to 6.24 | 6.24 to 9.1 | 6.24 to 9.1 | < 1040 | 9.1 to 11.7 | > 11.7 | < 1.04 | 9.1 to 11.7
COc1ccc(Nc2ncnc(N(C)[C@H](C)c3ccccc3)n2)cc1OC [Compound 803] | 1.09 to 6.57 | > 12.3 | > 12.3 | 1.09 to 6.57 | 6.57 to 9.58 | > 12300 | > 12.3 | > 12.3 | > 12.3 | > 12.3
